According to US20230000996A1, “RAPAFUCIN DERIVATIVE COMPOUNDS AND METHODS OF USE THEREOF” (The Johns Hopkins University, priority 2019, published 2023):

Experiment: Nucleoside uptake, single concentration assay (Rel.Uptake); cell line indicated in each table
Type: cell-based
Conditions: 293T cells, response relative to DMSO
Experimental: Nucleoside Uptake Assay (uptake). Nuceloside uptake assays were performed with using 3H-Thymidine as described in Guo et al. (2018) Nat. Chem. 11:254-63. Specific cell lines are indicated in each assay and cultured in complete growth media. Activity is scored according to the IC50 values relative to DMSO control. “Low” indicates an IC50 greater than 600 nM, “Medium” indicates an IC50 between 300 nM and 600 nM “High” indicates an IC50 less than 300 nM. “Rel.Uptake” refers to uptake activity characterization relative to a single concentration assay. “Low” indicates a response greater than 0.6 times the activity relative to DMSO, “Medium” indicates a response between 0.6 and 0.3 times the activity relative to DMSO, “High” indicates a response less than 0.3 times the activity relative to DMSO.

[1] = nucleoside uptake, single concentration assay

## COc1ccc(CC[C@H]2OC(=O)[C@@H]3CCCCN3C(=O)C(=O)C(C)(C)COC(=O)C=CCCN(C)C(=O)[C@H](CC(C)C)N(C)C(=O)[C@H]3CCCN3C(=O)[C@H](Cc3ccc(OCc4ccccc4)cc3)NC(=O)C(c3ccccc3)NC(=O)CCC(=O)Nc3cccc2c3)cc1OC (stereo partly drawn) [Compound 1082]
Single concentration
  Rel. Uptake, 293T: low

## COc1ccc(CC[C@H]2OC(=O)[C@@H]3CCCCN3C(=O)C(=O)C(C)(C)COC(=O)C=CCCN(C)C(=O)[C@H](CC(C)C)N(C)C(=O)[C@H]3CCCN3C(=O)[C@H](Cc3ccc(C(=O)NCCO)cc3)NC(=O)[C@H](c3ccccc3)NC(=O)CCC(=O)Nc3cccc2c3)cc1OC [Compound 1558]
[1]
  Rel. Uptake, 293T: high

## COc1cc(F)c(CC[C@H]2OC(=O)[C@@H]3CCCCN3C(=O)C(=O)C(C)(C)COC(=O)C=CCCN(C)C(=O)[C@@H](Cc3ccccc3)NC(=O)CN(C)C(=O)[C@@H](Cc3ccccc3)NC(=O)[C@H](Cc3ccc(O)cc3)N(C)C(=O)COc3cccc2c3)cc1OC [Compound 1570]
[1]
  Rel. Uptake, 293T: medium

## COc1ccc(CC[C@H]2OC(=O)[C@@H]3CNCCN3C(=O)C(=O)C(C)(C)COC(=O)C=CCCN(C)C(=O)[C@@H](Cc3ccccc3)NC(=O)CN(C)C(=O)[C@@H](Cc3ccccc3)NC(=O)[C@H](Cc3ccc(O)cc3)N(C)C(=O)COc3cccc2c3)cc1OC [Compound 1573]
[1]
  Rel. Uptake, 293T: low

## COc1cc(OC)c(OC)cc1CC[C@H]1OC(=O)[C@@H]2CCCCN2C(=O)C(=O)C(C)(C)COC(=O)C=CCCN(C)C(=O)[C@@H](Cc2ccccc2)NC(=O)CN(C)C(=O)[C@@H](Cc2ccccc2)NC(=O)[C@H](Cc2ccc(O)cc2)N(C)C(=O)COc2cccc1c2 [Compound 1581]
[1]
  Rel. Uptake, 293T: medium

## COc1ccc(CC[C@H]2OC(=O)[C@@H]3CCCCN3C(=O)C(=O)C(C)(C)COC(=O)C=CCCN(C)C(=O)[C@H](CC(C)C)N(C)C(=O)[C@H]3CCCN3C(=O)[C@H](Cc3ccc(CNC(=O)c4ccccc4)cc3)NC(=O)[C@H](c3ccccc3)NC(=O)CCC(=O)Nc3cccc2c3)cc1OC [Compound 1585]
[1]
  Rel. Uptake, 293T: High (“High” indicates a response less than 0.3 times the activity relative to DMSO)

## CCCC[C@H]1C(=O)N[C@@H](Cc2ccc3ccccc3c2)C(=O)N(C)[C@@H](COC(C)(C)C)C(=O)NCC(=O)N(C)CCC=CC(=O)OCC(C)(C)C(=O)C(=O)N2CCCC[C@H]2C(=O)O[C@H](CCc2ccc(OC)c(O)c2)c2cccc(c2)OCC(=O)N1C [Compound 1564]
[1]
  Rel. Uptake, 293T: high

## CCCCCCNC(=O)Cc1ccc(C[C@@H]2NC(=O)[C@H](c3ccccc3)NC(=O)CCC(=O)Nc3cccc(c3)[C@@H](CCc3ccc(OC)c(OC)c3)OC(=O)[C@@H]3CCCCN3C(=O)C(=O)C(C)(C)COC(=O)C=CCCN(C)C(=O)[C@H](CC(C)C)N(C)C(=O)[C@H]3CCCN3C2=O)cc1 [Compound 1591]
[1]
  Rel. Uptake, 293T: Med

## COc1ccc(CC[C@H]2OC(=O)[C@@H]3CCCCN3C(=O)C(=O)C(C)(C)COC(=O)C=CCCN(C)C(=O)[C@H](CC(C)C)N(C)C(=O)[C@H]3CCCN3C(=O)[C@H](Cc3ccc(CNC(=O)CN(C)C)cc3)NC(=O)[C@H](c3ccccc3)NC(=O)CCC(=O)Nc3cccc2c3)cc1OC [Compound 1587]
[1]
  Rel. Uptake, 293T: Low (“Low” indicates a response greater than 0.6 times the activity relative to DMSO)

## COc1ccc(CC[C@H]2OC(=O)[C@@H]3CCCCN3C(=O)C(=O)C(C)(C)COC(=O)C=CCCN(C)NC(c3ccccc3)C(=O)N(C)[C@@H](Cc3ccccc3)C(=O)N3CCC[C@@H]3C(=O)N(C)[C@@H](CC(C)C)C(=O)C(=O)CCOc3cccc2c3)cc1OC (stereo partly drawn) [Compound 1556]
[1]
  Rel. Uptake, 293T: low

## COc1ccc(CC[C@H]2OC(=O)[C@@H]3CCCCN3C(=O)C(=O)C(C)(C)COC(=O)C=CCCN(C)C(=O)[C@H](CC(C)C)N(C)C(=O)[C@H]3CCCN3C(=O)[C@H](Cc3ccc(C(=O)Nc4cccnc4)cc3)NC(=O)[C@H](c3ccccc3)NC(=O)CCC(=O)Nc3cccc2c3)cc1OC [Compound 1562]
[1]
  Rel. Uptake, 293T: low

## COc1cc(CC[C@H]2OC(=O)[C@@H]3CCCCN3C(=O)C(=O)C(C)(C)COC(=O)C=CCCN(C)C(=O)[C@@H](Cc3ccccc3)NC(=O)CN(C)C(=O)[C@@H](Cc3ccccc3)NC(=O)[C@H](Cc3ccc(O)cc3)N(C)C(=O)COc3cccc2c3)cc(OC)c1OC [Compound 1566]
[1]
  Rel. Uptake, 293T: medium

## COc1cc(O)c(CC[C@H]2OC(=O)[C@@H]3CCCCN3C(=O)C(=O)C(C)(C)COC(=O)C=CCCN(C)C(=O)[C@@H](Cc3ccccc3)NC(=O)CN(C)C(=O)[C@@H](Cc3ccccc3)NC(=O)[C@H](Cc3ccc(O)cc3)N(C)C(=O)COc3cccc2c3)cc1OC [Compound 1568]
[1]
  Rel. Uptake, 293T: low

## COc1ccc(CC[C@H]2OC(=O)[C@@H]3CCCCN3C(=O)C(=O)C(C)(C)COC(=O)C=CCCN(C)C(=O)[C@@H](Cc3ccccc3)NC(=O)CN(C)C(=O)[C@@H](Cc3ccccc3)NC(=O)[C@H](Cc3ccc(O)cc3)N(C)C(=O)COc3cccc2c3)c(O)c1OC [Compound 1584]
[1]
  Rel. Uptake, 293T: low

## COc1ccc(CC[C@H]2OC(=O)[C@@H]3CN(C)CCN3C(=O)C(=O)C(C)(C)COC(=O)C=CCCN(C)C(=O)[C@@H](Cc3ccccc3)NC(=O)CN(C)C(=O)[C@@H](Cc3ccccc3)NC(=O)[C@H](Cc3ccc(O)cc3)N(C)C(=O)COc3cccc2c3)cc1OC [Compound 1574]
[1]
  Rel. Uptake, 293T: low

## COc1ccc(CC[C@H]2OC(=O)[C@@H]3CCCCN3C(=O)C(=O)C(C)(C)COC(=O)C=CCCN(C)C(=O)[C@@H](Cc3ccccc3)NC(=O)CN(C)C(=O)[C@@H](Cc3ccccc3)NC(=O)[C@H](Cc3ccc(O)cc3)N(C)C(=O)COc3cc2ccc3F)cc1OC [Compound 1578]
[1]
  Rel. Uptake, 293T: low

## CCCC[C@H]1C(=O)N[C@@H](Cc2ccc3ccccc3c2)C(=O)N(C)[C@@H](COC(C)(C)C)C(=O)NCC(=O)N(C)CCC=CC(=O)OCC(C)(C)C(=O)C(=O)N2CCCC[C@H]2C(=O)O[C@H](CCc2ccc(OC)c(OC)c2)c2cccc(c2F)OCC(=O)N1C [Compound 1563]
[1]
  Rel. Uptake, 293T: high

## COc1ccc(CC[C@H]2OC(=O)[C@@H]3CCCCN3C(=O)C(=O)C(C)(C)COC(=O)C=CCCN(C)C(=O)[C@@H](Cc3ccccc3)NC(=O)CN(C)C(=O)[C@@H](Cc3ccccc3)NC(=O)[C@H](Cc3ccc(O)cc3)N(C)C(=O)COc3cncc2c3)cc1OC [Compound 1580]
[1]
  Rel. Uptake, 293T: low

## COc1ccc(CC[C@H]2OC(=O)[C@@H]3CCCCN3C(=O)C(=O)C(C)(C)COC(=O)C=CCCN(C)C(=O)[C@@H](Cc3ccccc3)NC(=O)CN(C)C(=O)[C@@H](Cc3ccccc3)NC(=O)[C@H](Cc3ccc(O)cc3)N(C)C(=O)COc3cccc2c3)c(OC)c1OC [Compound 1577]
[1]
  Rel. Uptake, 293T: medium

## COc1ccc(CC[C@H]2OC(=O)[C@@H]3CCCCN3C(=O)C(=O)C(C)(C)COC(=O)C=CCCN(C)C(=O)[C@@H](Cc3ccccc3)NC(=O)CN(C)C(=O)[C@@H](Cc3ccccc3)NC(=O)[C@H](Cc3ccc(O)cc3)N(C)C(=O)COc3ccc(F)c2c3)cc1OC [Compound 1575]
[1]
  Rel. Uptake, 293T: low

## COc1ccc(CC[C@H]2OC(=O)[C@@H]3CCCCN3C(=O)C(=O)C(C)(C)COC(=O)C=CCCN(C)C(=O)[C@H](CC(C)C)N(C)C(=O)[C@H]3CCCN3C(=O)[C@H](Cc3ccc(CC(=O)NCc4ccccc4)cc3)NC(=O)[C@H](c3ccccc3)NC(=O)CCC(=O)Nc3cccc2c3)cc1OC [Compound 1590]
[1]
  Rel. Uptake, 293T: High (“High” indicates a response less than 0.3 times the activity relative to DMSO)

## COc1ccc(CC[C@H]2OC(=O)[C@@H]3CCCCN3C(=O)C(=O)C(C)(C)COC(=O)C=CCCN(C)C(=O)[C@H](CC(C)C)N(C)C(=O)[C@H]3CCCN3C(=O)[C@H](Cc3ccc(NC(=O)Cc4cccnc4)cc3)NC(=O)[C@H](c3ccccc3)NC(=O)CCC(=O)Nc3cccc2c3)cc1OC [Compound 1589]
[1]
  Rel. Uptake, 293T: Low (“Low” indicates a response greater than 0.6 times the activity relative to DMSO)

## COc1ccc(CC[C@H]2OC(=O)[C@@H]3CCCCN3C(=O)C(=O)C(C)(C)COC(=O)C=CCCN(C)C(=O)[C@@H]3CCCN3C(=O)[C@H](COC(C)(C)C)N(C)C(=O)[C@H](c3ccccc3)NC(=O)[C@H](C)N(C)C(=O)COc3cc(F)cc2c3)cc1OC [Compound 1596]
[1]
  Rel. Uptake, 293T: Low (“Low” indicates a response greater than 0.6 times the activity relative to DMSO)

## COc1ccc(OC)c(OC)c1CC[C@H]1OC(=O)[C@@H]2CCCCN2C(=O)C(=O)C(C)(C)COC(=O)C=CCCN(C)C(=O)[C@@H](Cc2ccccc2)NC(=O)CN(C)C(=O)[C@@H](Cc2ccccc2)NC(=O)[C@H](Cc2ccc(O)cc2)N(C)C(=O)COc2cccc1c2 [Compound 1583]
[1]
  Rel. Uptake, 293T: low

## COc1ccc(CC[C@H]2OC(=O)[C@@H]3CCCCN3C(=O)C(=O)C(C)(C)COC(=O)C=CCCN(C)C(=O)[C@H](CC(C)C)N(C)C(=O)[C@H]3CCCN3C(=O)[C@H](Cc3ccc(O)cc3)NC(=O)C(c3ccccc3)NC(=O)CCC(=O)Nc3cccc2c3)cc1OC (stereo partly drawn) [Compound 1522]
[1]
  Rel. Uptake, 293T: high

## COc1cc(CC[C@H]2OC(=O)[C@@H]3CCCCN3C(=O)C(=O)C(C)(C)COC(=O)C=CCCN(C)C(=O)[C@@H](Cc3ccccc3)NC(=O)CN(C)C(=O)[C@@H](Cc3ccccc3)NC(=O)[C@H](Cc3ccc(O)cc3)N(C)C(=O)COc3cccc2c3)c(OC)c(OC)c1 [Compound 1582]
[1]
  Rel. Uptake, 293T: low

## COc1cc(CC[C@H]2OC(=O)[C@@H]3CCCCN3C(=O)C(=O)C(C)(C)COC(=O)C=CCCN(C)C(=O)[C@@H](Cc3ccccc3)NC(=O)CN(C)C(=O)[C@@H](Cc3ccccc3)NC(=O)[C@H](Cc3ccc(O)cc3)N(C)C(=O)COc3cccc2c3)cc(F)c1OC [Compound 1569]
[1]
  Rel. Uptake, 293T: low
